Measurements: patent US8895585B2, “Nicotinamide derivative or salt thereof” (FUJIFILM Corporation, priority 2010, dated 2014)

Tests used:
THP-1 cells = experiment: TNFα generation assay; assay type: cell-based, human; details: Homo sapiens, THP-1, THP-1 cells; Table 22; read-out: IC50 in TNFα generation assay
Summary of the method: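 THP-1 cells differentiated to macrophage-like cells with 10 ng/ml IFN-γ for 2 days, preincubated with compound 30 min at room temperature, then cultured 7 h on plates coated with human IgG (10 μg/ml). Secreted TNFα measured by ELISA or AlphaLISA.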

[1] = target: T1, glutathione S-transferase (GST)-fused full-length human Syk protein (Homo sapiens, UniProt P43405); experiment: Syk enzyme assay; assay type: biochemical; details: Syk enzyme assay, Test Example 1; read-out: IC50 of Syk-inhibitory activity
T1 construct: (GST)-fused full-length human Syk protein; GST (glutathione S-transferase); purchased Carna Biosciences
Summary of the method: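 Baculovirus-expressed enzyme (1.2 ng) was preincubated with compound in HEPES pH 7.0/MgCl2/DTT buffer, 2 min shaking then 13 min at room temperature. Biotin-EDPDYEWPSA-NH2 (0.4 μM final) and ATP (27 μM final) were added for 40 min at room temperature. EDTA stop, streptavidin-XL/PT66-K TR-FRET at 615/665 nm gave IC50.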

| SMILES | IC50 (THP-1 cells) | IC50 [1] |
| --- | --- | --- |
| CC(C)C[C@H](CN)Nc1nc(Nc2cncc(Cl)c2)c(C(N)=O)cc1F [Example 006-180, (R)-6-((1-amino-4-methylpentan-2-yl)amino)-2-((5-chloropyridin-3-yl)amino)-5-fluoronicotinamide] | 130 to 200 nM | < 10 nM |
| NC[C@H](Nc1nc(Nc2ccc3ncccc3c2)c(C(N)=O)cc1F)C1CC1 [Example 006-186, (R)-6-((2-amino-1-cyclopropylethyl)amino)-5-fluoro-2-((quinolin-6-yl)amino)nicotinamide] | < 65 nM | < 10 nM |
| CC[C@@H](Nc1nc(Nc2cnc3cc(OC)ccc3c2)c(C(N)=O)cc1F)[C@H](C)N [Example 006-190, 6-(((2S,3R)-2-aminopentan-3-yl)amino)-5-fluoro-2-((7-methoxyquinolin-3-yl)amino)nicotinamide] | < 65 nM | < 10 nM |
| CC[C@H](N)[C@@H](C)Nc1nc(Nc2ccc3ncccc3c2)c(C(N)=O)cc1F [Example 006-198, 6-(((2R,3S)-3-aminopentan-2-yl)amino)-5-fluoro-2-((quinolin-6-yl)amino)nicotinamide] | 65 to 130 nM | < 10 nM |
| CC[C@H](N)[C@@H](CC)Nc1nc(Nc2ccc3ncccc3c2)c(C(N)=O)cc1F [Example 006-199, 6-(((3R,4S)-4-aminohexan-3-yl)amino)-5-fluoro-2-((quinolin-6-yl)amino)nicotinamide] | 65 to 130 nM | < 10 nM |
| CCC[C@@H](Nc1nc(Nc2ccc3ncccc3c2)c(C(N)=O)cc1F)[C@@H](N)CC [Example 006-200, 6-(((3S,4R)-3-aminoheptan-4-yl)amino)-5-fluoro-2-((quinolin-6-yl)amino)nicotinamide] | 65 to 130 nM | < 10 nM |
| CC[C@H](N)[C@@H](CC(C)C)Nc1nc(Nc2ccc3ncccc3c2)c(C(N)=O)cc1F [Example 006-201, 6-(((4R,5S)-5-amino-2-methylheptan-4-yl)amino)-5-fluoro-2-((quinolin-6-yl)amino)nicotinamide] | 130 to 200 nM | < 10 nM |
| CCC[C@@H](Nc1nc(Nc2cnc3cc(OC)ccc3c2)c(C(N)=O)cc1F)[C@H](C)N [Example 006-204, 6-(((2S,3R)-2-aminohexan-3-yl)amino)-5-fluoro-2-((7-methoxyquinolin-3-yl)amino)nicotinamide] | 65 to 130 nM | < 10 nM |
| COc1ccc2cc(Nc3nc(N[C@H](CC(C)C)[C@H](C)N)c(F)cc3C(N)=O)cnc2c1 [Example 006-206, 6-(((2S,3R)-2-amino-5-methylhexan-3-yl)amino)-5-fluoro-2-((7-methoxyquinolin-3-yl)amino)nicotinamide] | 130 to 200 nM | < 10 nM |

Results, then the compound that gave them:

| IC50 (THP-1 cells) | IC50 [1] | SMILES |
| --- | --- | --- |
| < 65 nM | < 10 nM | CCC[C@@H](Nc1nc(Nc2ccc3ncccc3c2)c(C(N)=O)cc1F)[C@H](C)N [Example 006-207, 6-(((2S,3R)-2-aminohexan-3-yl)amino)-5-fluoro-2-((quinolin-6-yl)amino)nicotinamide] |
| 65 to 130 nM | < 10 nM | CCCC[C@@H](Nc1nc(Nc2ccc3ncccc3c2)c(C(N)=O)cc1F)[C@H](C)N [Example 006-208, 6-(((2S,3R)-2-aminoheptan-3-yl)amino)-5-fluoro-2-((quinolin-6-yl)amino)nicotinamide] |
| 65 to 130 nM | < 10 nM | CC(C)C[C@@H](Nc1nc(Nc2ccc3ncccc3c2)c(C(N)=O)cc1F)[C@H](C)N [Example 006-209, 6-(((2S,3R)-2-amino-5-methylhexan-3-yl)amino)-5-fluoro-2-((quinolin-6-yl)amino)nicotinamide] |
| < 65 nM | < 10 nM | CC[C@@H](Nc1nc(Nc2ccc3c(cnn3C)c2)c(C(N)=O)cc1F)[C@H](C)N [Example 006-210, 6-(((2S,3R)-2-aminopentan-3-yl)amino)-5-fluoro-2-((1-methyl-1H-indazol-5-yl)amino)nicotinamide] |
